Results as given in patent US6420110B1, “Methods and reagents for isolating biologically active peptides” (GPC Biotech, Inc., priority 1998, dated 2002).

Test system: bovine capillary endothelial (BCE) cells
Experiment: Inhibition of bFGF stimulated BCE cell proliferation in Transwells (CyQUANT)
Type: cell-based
Settings: 1 ng/ml bFGF, 72 hrs
Procedure: COS-7 cells were transfected with pAM9-myc, pAM9-RGD and pAM9-K1 plasmids, respectively, that direct the expression and secretion of the Myc epitope-6xHis, the RGD and the angiostatin first kringle domain peptides. The transfected COS-7 cells were co-incubated in Transwells with BCE cells whose proliferation was stimulated by 1 ng/ml bFGF. As controls, untransfected COS-7 cells and bFGF stimulated BCE cells were similarly co-incubated and synthetic Myc-6xHis and RGD peptides as well as purified K1 were added to the media at the indicated concentrations. The proliferation of the bFGF stimulated BCE cells were measured 72 hrs later using the fluorescent CyQUANT proliferation kit (Molecular Probes).

CDCRGDCFC [RGD peptide, positive control]
inhibition of bFGF stimulated BCE cell proliferation (peptide secreted from transfected COS-7 cells co-incubated in Transwells): inhibited | inhibition of bFGF stimulated BCE cell proliferation (synthetic or purified peptide added to the media, untransfected COS-7 cells co-incubated): inhibited
